According to ChEMBL document CHEMBL4507295 (2021):

Key:
Conditions in all cases: Compound concentration 1000.0 nM
[1] = system: Tyrosine-protein kinase ABL1 (Homo sapiens), P00519 [T315I]
[2] = molecular target: Tyrosine-protein kinase ABL1 (Homo sapiens) (UniProt P00519)
[3] = molecular target: Calcium/calmodulin-dependent protein kinase type 1D (Homo sapiens) (UniProt Q8IU85)
[4] = molecular target: Cyclin-dependent kinase 13 (Homo sapiens) (UniProt Q14004)
[5] = molecular target: Cyclin-dependent kinase 2 (Homo sapiens) (UniProt P24941)
[6] = molecular target: Cyclin-dependent kinase 3 (Homo sapiens) (UniProt Q00526)
[7] = molecular target: Cyclin-dependent kinase 4 (Homo sapiens) (UniProt P11802)
[8] = molecular target: Cyclin-dependent kinase 9 (Homo sapiens) (UniProt P50750)
[9] = molecular target: Dual specificity protein kinase CLK2 (Homo sapiens) (UniProt P49760)
[10] = molecular target: Casein kinase I isoform epsilon (Homo sapiens) (UniProt P49674)
[11] = molecular target: Eukaryotic translation initiation factor 2-alpha kinase 1 (Homo sapiens) (UniProt Q9BQI3)
[12] = molecular target: Receptor tyrosine-protein kinase erbB-4 (Homo sapiens) (UniProt Q15303)
[13] = molecular target: Fibroblast growth factor receptor 2 (Homo sapiens) (UniProt P21802)
[14] = molecular target: Tyrosine-protein kinase Fyn (Homo sapiens) (UniProt P06241)
[15] = molecular target: Serine/threonine-protein kinase haspin (Homo sapiens) (UniProt Q8TF76)
[16] = molecular target: Mitogen-activated protein kinase kinase kinase kinase 1 (Homo sapiens) (UniProt Q92918)
[17] = molecular target: Serine/threonine-protein kinase ICK (Homo sapiens) (UniProt Q9UPZ9)
[18] = system: Mast/stem cell growth factor receptor Kit (Homo sapiens), P10721 [V559D]
[19] = molecular target: LIM domain kinase 2 (Homo sapiens) (UniProt P53671)
[20] = molecular target: Mitogen-activated protein kinase kinase kinase 1 (Homo sapiens) (UniProt Q13233)
[21] = molecular target: Mitogen-activated protein kinase kinase kinase 15 (Homo sapiens) (UniProt Q6ZN16)
[22] = molecular target: Mitogen-activated protein kinase kinase kinase kinase 4 (Homo sapiens) (UniProt O95819)
[23] = molecular target: Mitogen-activated protein kinase kinase kinase 9 (Homo sapiens) (UniProt P80192)
[24] = molecular target: Myosin-IIIa (Homo sapiens) (UniProt Q8NEV4)
[25] = molecular target: Serine/threonine-protein kinase Nek10 (Homo sapiens) (UniProt Q6ZWH5)
[26] = molecular target: Serine/threonine-protein kinase PAK 4 (Homo sapiens) (UniProt O96013)
[27] = molecular target: Cyclin-dependent kinase 16 (Homo sapiens) (UniProt Q00536)
[28] = molecular target: Phosphorylase b kinase gamma catalytic chain, skeletal muscle/heart isoform (Homo sapiens) (UniProt Q16816)
[29] = molecular target: 1-phosphatidylinositol 3-phosphate 5-kinase (Homo sapiens) (UniProt Q9Y2I7)
[30] = molecular target: Membrane-associated tyrosine- and threonine-specific cdc2-inhibitory kinase (Homo sapiens) (UniProt Q99640)
[31] = molecular target: Serine/threonine-protein kinase PLK4 (Homo sapiens) (UniProt O00444)
[32] = molecular target: Protein kinase C epsilon type (Homo sapiens) (UniProt Q02156)
[33] = molecular target: Protein kinase C iota type (Homo sapiens) (UniProt P41743)
[34] = molecular target: cGMP-dependent protein kinase 2 (Homo sapiens) (UniProt Q13237)
[35] = molecular target: Proto-oncogene tyrosine-protein kinase receptor Ret (Homo sapiens) (UniProt P07949)
[36] = molecular target: Serine/threonine-protein kinase RIO1 (Homo sapiens) (UniProt Q9BRS2)
[37] = molecular target: Ribosomal protein S6 kinase alpha-6 (Homo sapiens) (UniProt Q9UK32)
[38] = molecular target: Serine/threonine-protein kinase SBK1 (Homo sapiens) (UniProt Q52WX2)
[39] = molecular target: SRSF protein kinase 1 (Homo sapiens) (UniProt Q96SB4)
[40] = molecular target: Serine/threonine-protein kinase TBK1 (Homo sapiens) (UniProt Q9UHD2)
[41] = molecular target: TRAF2 and NCK-interacting protein kinase (Homo sapiens) (UniProt Q9UKE5)
[42] = molecular target: Phosphatidylinositol 3-kinase catalytic subunit type 3 (Homo sapiens) (UniProt Q8NEB9)
[43] = molecular target: Wee1-like protein kinase 2 (Homo sapiens) (UniProt P0C1S8)
[44] = molecular target: Serine/threonine-protein kinase 25 (Homo sapiens) (UniProt O00506)
[45] = molecular target: Mitogen-activated protein kinase kinase kinase 20 (Homo sapiens) (UniProt Q9NYL2)

Measured: residual activity

Sequence of Cyclin-dependent kinase 4 (Homo sapiens) (P11802 whole entry): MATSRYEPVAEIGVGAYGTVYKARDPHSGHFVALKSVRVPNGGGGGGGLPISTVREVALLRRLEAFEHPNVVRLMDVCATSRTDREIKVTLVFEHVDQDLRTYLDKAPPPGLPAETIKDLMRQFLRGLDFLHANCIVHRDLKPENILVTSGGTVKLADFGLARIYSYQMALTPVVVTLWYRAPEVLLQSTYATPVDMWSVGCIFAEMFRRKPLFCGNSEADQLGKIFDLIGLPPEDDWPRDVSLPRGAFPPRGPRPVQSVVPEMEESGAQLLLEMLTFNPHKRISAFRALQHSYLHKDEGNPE
Sequence of Serine/threonine-protein kinase PLK4 (Homo sapiens) (O00444 whole entry): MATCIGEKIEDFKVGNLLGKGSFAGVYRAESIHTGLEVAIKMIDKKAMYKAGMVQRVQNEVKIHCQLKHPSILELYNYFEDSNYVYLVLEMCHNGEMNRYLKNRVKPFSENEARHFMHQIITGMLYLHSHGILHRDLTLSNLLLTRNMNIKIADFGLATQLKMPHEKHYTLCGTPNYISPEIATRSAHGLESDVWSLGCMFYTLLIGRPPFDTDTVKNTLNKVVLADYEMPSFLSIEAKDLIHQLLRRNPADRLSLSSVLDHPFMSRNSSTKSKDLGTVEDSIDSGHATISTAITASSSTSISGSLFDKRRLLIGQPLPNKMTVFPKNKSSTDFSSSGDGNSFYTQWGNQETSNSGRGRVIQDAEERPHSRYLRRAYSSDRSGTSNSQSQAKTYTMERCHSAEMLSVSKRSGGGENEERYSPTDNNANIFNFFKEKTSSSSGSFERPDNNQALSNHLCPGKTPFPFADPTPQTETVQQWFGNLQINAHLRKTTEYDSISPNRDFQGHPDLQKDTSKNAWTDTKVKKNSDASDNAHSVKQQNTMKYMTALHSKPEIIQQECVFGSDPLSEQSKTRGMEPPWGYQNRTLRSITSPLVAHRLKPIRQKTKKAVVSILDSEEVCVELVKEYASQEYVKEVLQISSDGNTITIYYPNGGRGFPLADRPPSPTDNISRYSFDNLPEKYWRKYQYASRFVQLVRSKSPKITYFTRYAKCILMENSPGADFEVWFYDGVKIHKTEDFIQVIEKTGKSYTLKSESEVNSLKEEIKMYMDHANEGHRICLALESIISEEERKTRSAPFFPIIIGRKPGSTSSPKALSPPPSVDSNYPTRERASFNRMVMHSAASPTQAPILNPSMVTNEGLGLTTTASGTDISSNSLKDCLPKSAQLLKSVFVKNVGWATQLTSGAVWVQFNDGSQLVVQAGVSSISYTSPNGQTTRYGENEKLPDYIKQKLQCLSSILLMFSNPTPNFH
Sequence of Calcium/calmodulin-dependent protein kinase type 1D (Homo sapiens) (Q8IU85 whole entry, looked up): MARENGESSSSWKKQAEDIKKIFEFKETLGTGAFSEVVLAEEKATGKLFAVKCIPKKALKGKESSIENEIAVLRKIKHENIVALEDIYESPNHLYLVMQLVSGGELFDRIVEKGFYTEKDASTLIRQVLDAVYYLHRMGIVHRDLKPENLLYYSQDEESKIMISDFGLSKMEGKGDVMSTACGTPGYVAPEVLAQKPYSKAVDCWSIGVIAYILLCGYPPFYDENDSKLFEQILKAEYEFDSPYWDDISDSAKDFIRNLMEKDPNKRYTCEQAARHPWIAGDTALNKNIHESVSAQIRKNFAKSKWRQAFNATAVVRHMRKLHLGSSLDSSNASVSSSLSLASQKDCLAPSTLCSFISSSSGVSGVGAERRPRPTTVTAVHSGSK
Sequence of Serine/threonine-protein kinase haspin (Homo sapiens) (Q8TF76 whole entry): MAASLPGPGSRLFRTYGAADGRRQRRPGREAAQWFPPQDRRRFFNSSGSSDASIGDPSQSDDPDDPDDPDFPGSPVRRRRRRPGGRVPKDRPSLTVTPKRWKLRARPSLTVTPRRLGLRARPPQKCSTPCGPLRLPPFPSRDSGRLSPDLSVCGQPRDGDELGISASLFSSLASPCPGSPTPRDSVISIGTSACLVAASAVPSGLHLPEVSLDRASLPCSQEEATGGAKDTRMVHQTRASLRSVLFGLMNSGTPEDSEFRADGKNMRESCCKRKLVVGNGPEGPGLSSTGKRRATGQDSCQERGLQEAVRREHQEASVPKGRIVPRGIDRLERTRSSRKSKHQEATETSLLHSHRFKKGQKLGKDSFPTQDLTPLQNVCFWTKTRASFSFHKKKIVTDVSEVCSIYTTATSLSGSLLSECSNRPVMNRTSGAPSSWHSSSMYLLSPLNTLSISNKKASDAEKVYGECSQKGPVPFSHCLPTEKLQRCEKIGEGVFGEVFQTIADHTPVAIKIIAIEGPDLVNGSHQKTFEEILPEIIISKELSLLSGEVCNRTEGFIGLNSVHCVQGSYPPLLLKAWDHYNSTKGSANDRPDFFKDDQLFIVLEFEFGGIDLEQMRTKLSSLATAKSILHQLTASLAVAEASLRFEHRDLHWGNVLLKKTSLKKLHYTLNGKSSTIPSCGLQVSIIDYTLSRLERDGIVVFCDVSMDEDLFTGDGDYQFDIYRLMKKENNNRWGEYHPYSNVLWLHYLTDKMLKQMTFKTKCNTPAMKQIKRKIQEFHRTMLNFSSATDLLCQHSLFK
Sequence of Protein kinase C epsilon type (Homo sapiens) (Q02156 whole entry): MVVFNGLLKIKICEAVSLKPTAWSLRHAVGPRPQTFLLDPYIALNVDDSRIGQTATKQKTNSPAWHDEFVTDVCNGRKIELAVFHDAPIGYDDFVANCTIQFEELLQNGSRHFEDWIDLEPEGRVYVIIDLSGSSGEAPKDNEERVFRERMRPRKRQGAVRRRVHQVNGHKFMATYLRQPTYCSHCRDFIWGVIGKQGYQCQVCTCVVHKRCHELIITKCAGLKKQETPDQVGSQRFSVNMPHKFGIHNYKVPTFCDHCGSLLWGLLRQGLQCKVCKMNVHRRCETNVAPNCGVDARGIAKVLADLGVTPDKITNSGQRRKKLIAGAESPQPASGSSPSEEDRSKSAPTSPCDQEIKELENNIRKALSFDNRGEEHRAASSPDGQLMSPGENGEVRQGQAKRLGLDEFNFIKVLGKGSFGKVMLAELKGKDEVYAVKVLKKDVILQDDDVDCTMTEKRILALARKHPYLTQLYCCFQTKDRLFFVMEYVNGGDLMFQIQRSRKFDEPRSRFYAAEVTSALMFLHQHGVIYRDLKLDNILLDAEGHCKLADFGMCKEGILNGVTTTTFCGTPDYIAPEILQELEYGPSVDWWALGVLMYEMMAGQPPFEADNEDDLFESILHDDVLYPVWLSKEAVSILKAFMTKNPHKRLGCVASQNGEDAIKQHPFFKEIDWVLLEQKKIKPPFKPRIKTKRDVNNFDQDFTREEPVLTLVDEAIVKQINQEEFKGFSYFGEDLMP
Sequence of SRSF protein kinase 1 (Homo sapiens) (Q96SB4 whole entry): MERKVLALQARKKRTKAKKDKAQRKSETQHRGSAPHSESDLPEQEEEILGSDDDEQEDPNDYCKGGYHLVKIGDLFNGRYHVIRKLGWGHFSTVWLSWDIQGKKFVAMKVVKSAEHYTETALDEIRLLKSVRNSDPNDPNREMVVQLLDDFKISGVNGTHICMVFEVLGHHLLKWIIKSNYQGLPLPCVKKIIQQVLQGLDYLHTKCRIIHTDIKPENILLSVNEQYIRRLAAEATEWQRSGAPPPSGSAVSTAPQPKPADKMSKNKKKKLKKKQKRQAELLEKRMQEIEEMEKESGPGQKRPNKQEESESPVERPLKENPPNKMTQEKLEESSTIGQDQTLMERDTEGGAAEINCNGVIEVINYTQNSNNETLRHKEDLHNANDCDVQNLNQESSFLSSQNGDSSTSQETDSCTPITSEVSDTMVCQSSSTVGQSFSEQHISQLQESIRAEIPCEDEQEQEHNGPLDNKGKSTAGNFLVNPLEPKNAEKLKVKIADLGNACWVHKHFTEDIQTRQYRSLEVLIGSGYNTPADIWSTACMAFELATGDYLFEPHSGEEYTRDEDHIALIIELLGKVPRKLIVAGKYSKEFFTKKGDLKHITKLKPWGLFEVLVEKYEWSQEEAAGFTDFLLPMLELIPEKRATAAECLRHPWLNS
Sequence of Serine/threonine-protein kinase 25 (Homo sapiens) (O00506 whole entry, looked up): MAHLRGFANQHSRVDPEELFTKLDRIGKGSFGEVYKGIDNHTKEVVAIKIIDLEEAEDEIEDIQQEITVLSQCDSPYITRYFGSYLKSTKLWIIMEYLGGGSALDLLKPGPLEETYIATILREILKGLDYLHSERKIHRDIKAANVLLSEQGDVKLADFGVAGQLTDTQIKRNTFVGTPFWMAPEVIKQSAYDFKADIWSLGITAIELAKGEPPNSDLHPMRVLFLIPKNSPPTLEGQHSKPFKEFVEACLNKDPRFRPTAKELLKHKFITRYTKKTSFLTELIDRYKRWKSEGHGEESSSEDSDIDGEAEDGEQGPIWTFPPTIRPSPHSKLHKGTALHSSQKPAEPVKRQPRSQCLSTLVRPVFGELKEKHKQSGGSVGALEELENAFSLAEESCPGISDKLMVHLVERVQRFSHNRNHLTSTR
Sequence of Cyclin-dependent kinase 16 (Homo sapiens) (Q00536 whole entry, canonical isoform): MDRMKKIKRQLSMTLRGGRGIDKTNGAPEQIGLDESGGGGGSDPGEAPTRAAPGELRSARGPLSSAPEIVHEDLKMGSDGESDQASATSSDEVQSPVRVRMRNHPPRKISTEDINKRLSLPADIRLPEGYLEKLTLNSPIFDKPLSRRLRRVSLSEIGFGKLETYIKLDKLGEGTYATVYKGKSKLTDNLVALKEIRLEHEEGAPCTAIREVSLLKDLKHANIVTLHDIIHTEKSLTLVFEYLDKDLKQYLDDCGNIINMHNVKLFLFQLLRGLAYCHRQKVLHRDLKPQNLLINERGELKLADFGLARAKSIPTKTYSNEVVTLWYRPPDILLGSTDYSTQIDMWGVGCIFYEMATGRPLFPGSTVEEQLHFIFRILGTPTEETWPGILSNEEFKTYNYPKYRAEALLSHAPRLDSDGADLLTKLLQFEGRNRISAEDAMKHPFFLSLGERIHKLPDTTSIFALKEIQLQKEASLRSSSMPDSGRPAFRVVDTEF

N#CC1(c2ccccn2)CCN(Cc2cc(C(=O)O)c(=O)n3ccccc23)CC1 [MSD-M1PAM]
inactive: [1] 91% | [2] 100% | [3] 100% | [4] 98% | [5] 100% | [6] 99% | [7] 94% | [8] 99% | [9] 100% | [10] 100% | [11] 86% | [12] 72% | [13] 100% | [14] 99% | [15] 100% | [16] 100% | [17] 75% | [18] 100% | [19] 100% | [20] 98% | [21] 100% | [22] 87% | [23] 92% | [24] 100% | [25] 93% | [26] 100% | [27] 67% | [28] 100% | [29] 97% | [30] 100% | [31] 90% | [32] 100% | [33] 100% | [34] 95% | [35] 95% | [36] 88% | [37] 97% | [38] 83% | [39] 100% | [40] 98% | [41] 100% | [42] 70% | [43] 100% | [44] 100% | [45] 100%

N#CC1(c2ccccn2)CCN(Cc2cc(C(=O)N3CCCC3)c(=O)n3ccccc23)CC1
inactive: [1] 100% | [2] 89% | [3] 100% | [4] 100% | [5] 86% | [6] 79% | [7] 91% | [8] 88% | [9] 100% | [10] 100% | [11] 83% | [12] 85% | [13] 91% | [14] 83% | [15] 100% | [16] 100% | [17] 100% | [18] 100% | [19] 82% | [20] 98% | [21] 100% | [22] 87% | [23] 72% | [24] 80% | [25] 96% | [26] 100% | [27] 100% | [28] 100% | [29] 76% | [30] 79% | [31] 87% | [32] 79% | [33] 87% | [34] 100% | [35] 74% | [36] 95% | [37] 91% | [38] 89% | [39] 85% | [40] 99% | [41] 100% | [42] 89% | [43] 91% | [44] 97% | [45] 95%
